Source: US10131679B2, “Substituted dihydropyrrolopyrazole compound” (UBE INDUSTRIES, LTD., priority 2014, dated 2018)

How the values were obtained:
[1] = system: human large intestine cancer cell line (HCT-116); experiment: Human large intestine cancer (HCT-116) cell growth inhibition test; assay type: cell-based; conditions: 72 h, HCT-116, culture for 3 days, sulforhodamine B absorbance
How it was run: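 HCT-116 cells seeded at 1.0×10^3 cells/well in McCoy's 5a with 10% FBS, then exposed to compound (0.1% DMSO final) for 3 days. Growth measured by sulforhodamine B absorbance; IC50 derived from concentration-inhibition data.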

CDK7 = target: T1, CDK7 (Homo sapiens, UniProt P50613); experiment: CDK7 enzyme inhibition test; assay type: biochemical; conditions: Ki=IC50/(1+S/Km); 33P bound to MBP, [γ-33P]ATP, 30° C. for 20 minutes; read-out: Ki value of CDK7 inhibitory activity
T1 construct: purchased Carna Biosciences, Inc. 04-108
How it was run: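 Recombinant CDK7 with MBP substrate and [γ-33P]ATP (500 μM solution, diluted into the mix) in HEPES pH 7.4/DTT/Triton X-100/MgCl2, 20 min at 30 °C. TCA-precipitated 33P-MBP counted by scintillation; IC50 from inhibition, Ki = IC50/(1+S/Km).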

PAK4 = target: T2, PAK4 (Homo sapiens, UniProt O96013); experiment: PAK4 enzyme inhibition test; assay type: biochemical; conditions: Ki=IC50/(1+S/Km); 33P bound to MBP, [γ-33P]ATP, 30° C. for 20 minutes; read-out: Ki value of PAK4 inhibitory activity
T2 construct: purchased Invitrogen Corp. PV4212
Protocol: PAK4 Enzyme Inhibition Test
The preparation of a buffer solution was performed by mixing a trishydroxyaminomethane buffer solution (Tris buffer solution) (pH 7.5), DTT, Triton X-100, MgCl2, ethylene glycol bis(β-aminoethyl ether)-N,N,N′,N′-tetraacetic acid (EGTA), (3-glycerol phosphate, and sodium orthovanadate(V). A 40 μM [γ-^33P]ATP solution was used by diluting a 10 mM ATP solution and a commercially available [γ-^33P]ATP solution (manufactured by PerkinElmer, Inc., Code No. NEG-302H) with the buffer solution. A PAK4 solution was used by diluting commercially available PAK4 (manufactured by Invitrogen Corp., Catalog No. PV4212) with the buffer solution. A substrate solution was used by diluting MBP with the buffer solution. As for the preparation of a reaction solution, the buffer solution, the 40 μM [γ-^33P]ATP solution, the PAK4 solution, and the substrate solution were mixed at 4° C. to obtain a reaction solution.
PAK4 enzyme reaction was performed by adding 5 μL of a test compound solution prepared with 10% DMSO/90% injectable distilled water, and 45 μL of the reaction solution in a 1.5 mL microtube at 4° C. and reacting in the microtube at 30° C. for 20 minutes in a water bath incubator. After the reaction, a 10% aqueous TCA solution was added to each microtube while cooled to 4° C., and mixed to terminate the reaction. The resultant was left standing at 4° C. for 10 minutes and then centrifuged in a centrifuge, and the supernatant was discarded. Next, a 2% aqueous TCA solution was added, mixed, and then centrifuged in a centrifuge, and the supernatant was discarded. This washing operation was performed twice. After the washing, precipitates were dissolved in a 1 N aqueous NaOH solution, and the radioactivity was measured with a liquid scintillation counter.
The calculation of the inhibitory activity of the test compound against PAK4 was performed as a test compound concentration inhibiting 50% of the amount of ^33P bound to MBP (IC50 value) by using EXSUS (version 8.0.0 or version 8.0.1, manufactured by CAC Exicare Corp.).
The calculation of a Ki value was performed according to the following calculation expression. S means the concentration of ATP contained in the reaction solution, and Km means a Michaelis-Menten constant. Ki=IC50/(1+S/Km)

T1 sequence (P50613 whole entry): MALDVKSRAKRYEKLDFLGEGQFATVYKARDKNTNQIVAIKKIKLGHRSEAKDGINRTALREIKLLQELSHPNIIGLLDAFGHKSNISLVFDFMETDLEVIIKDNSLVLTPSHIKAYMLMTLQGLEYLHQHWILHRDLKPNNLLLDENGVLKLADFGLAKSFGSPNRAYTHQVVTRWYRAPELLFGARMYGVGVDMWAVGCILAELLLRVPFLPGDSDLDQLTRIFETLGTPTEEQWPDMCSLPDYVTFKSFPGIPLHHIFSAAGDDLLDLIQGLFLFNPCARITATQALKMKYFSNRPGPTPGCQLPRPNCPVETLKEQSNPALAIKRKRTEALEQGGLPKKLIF
T1 sequence (P51946 whole entry partner): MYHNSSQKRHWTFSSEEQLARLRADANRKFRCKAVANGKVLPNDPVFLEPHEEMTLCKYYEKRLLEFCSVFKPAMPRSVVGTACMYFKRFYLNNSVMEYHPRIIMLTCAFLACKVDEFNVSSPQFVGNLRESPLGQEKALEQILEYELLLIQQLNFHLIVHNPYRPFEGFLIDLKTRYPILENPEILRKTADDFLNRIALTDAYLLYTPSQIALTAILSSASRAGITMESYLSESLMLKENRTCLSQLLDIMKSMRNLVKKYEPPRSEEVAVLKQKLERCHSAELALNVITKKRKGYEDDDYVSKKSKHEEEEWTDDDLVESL
T1 sequence (P51948 whole entry partner): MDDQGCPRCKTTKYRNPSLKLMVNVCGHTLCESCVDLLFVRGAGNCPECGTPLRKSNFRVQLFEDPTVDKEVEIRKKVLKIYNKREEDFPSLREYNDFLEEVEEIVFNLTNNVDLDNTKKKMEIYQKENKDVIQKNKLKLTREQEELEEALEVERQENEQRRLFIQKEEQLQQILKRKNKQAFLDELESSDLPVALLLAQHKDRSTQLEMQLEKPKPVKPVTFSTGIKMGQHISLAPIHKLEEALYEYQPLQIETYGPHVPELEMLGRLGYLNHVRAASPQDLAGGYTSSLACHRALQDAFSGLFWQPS
T2 sequence (O96013 whole entry): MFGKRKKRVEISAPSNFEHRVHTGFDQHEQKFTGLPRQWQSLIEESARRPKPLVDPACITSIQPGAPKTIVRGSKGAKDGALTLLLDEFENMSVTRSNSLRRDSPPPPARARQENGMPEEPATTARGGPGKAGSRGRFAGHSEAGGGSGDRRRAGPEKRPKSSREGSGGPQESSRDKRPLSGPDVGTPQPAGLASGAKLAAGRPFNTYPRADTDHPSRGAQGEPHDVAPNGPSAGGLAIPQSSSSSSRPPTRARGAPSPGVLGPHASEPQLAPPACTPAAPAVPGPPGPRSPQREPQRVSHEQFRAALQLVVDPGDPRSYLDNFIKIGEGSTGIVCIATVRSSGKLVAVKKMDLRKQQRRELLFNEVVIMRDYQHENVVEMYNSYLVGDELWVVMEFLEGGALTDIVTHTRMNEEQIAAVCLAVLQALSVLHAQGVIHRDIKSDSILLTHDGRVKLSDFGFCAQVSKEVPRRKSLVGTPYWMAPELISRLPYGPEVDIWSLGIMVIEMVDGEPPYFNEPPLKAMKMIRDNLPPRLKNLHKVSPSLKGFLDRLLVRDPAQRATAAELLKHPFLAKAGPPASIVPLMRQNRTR

Row | Structure (SMILES) | IC50 [1] | Ki (CDK7) | Ki (PAK4)
1 | CC1(C)c2[nH]nc(NC(=O)C(C)(C)[Si](C)(C)C)c2CN1C(=O)N[C@H](CO)c1ccccc1 [II-114, (S)—N-(2-Hydroxy-1-phenylethyl)-6,6-dimethyl-3-[2-methyl-2-(trimethylsilyl)propanamido]-4,6-dihydropyrrolo[3,4-c]pyrazole-5(1H)-carboxamide] | ≤ 500 nM | ≤ 50 nM | ≥ 500 nM
2 | C[C@@H](CO)NC(=O)N1Cc2c(NC(=O)C3([Si](C)(C)C)CCC3)n[nH]c2C1(C)C [IV-455, (S)—N-(1-Hydroxypropan-2-yl)-6,6-dimethyl-3-[1-(trimethylsilyl)cyclobutanecarboxamido]-4,6-dihydropyrrolo[3,4-c]pyrazole-5(1H)-carboxamide] |  | ≤ 50 nM | ≥ 500 nM
3 | CC1(C)c2[nH]nc(NC(=O)C3([Si](C)(C)C)CCC3)c2CN1C(=O)NC(c1ccccc1)C1(CO)CCC1 (stereo not shown) [IV-718, N-{[1-(Hydroxymethyl)cyclobutyl](phenyl)methyl}-6,6-dimethyl-3-[1-(trimethylsilyl)cyclobutanecarboxamido]-4,6-dihydropyrrolo[3,4-c]pyrazole-5(1H)-carboxamide] | ≤ 500 nM |  | ≥ 500 nM
4 | CC(C)(CO)C(NC(=O)N1Cc2c(NC(=O)C3([Si](C)(C)C)CCC3)n[nH]c2C1(C)C)c1cccc(F)c1 (stereo not shown) [IV-918, N-[1-(3-Fluorophenyl)-3-hydroxy-2,2-dimethylpropyl]-6,6-dimethyl-3-[1-(trimethylsilyl)cyclobutanecarboxamido]-4,6-dihydropyrrolo[3,4-c]pyrazole-5(1H)-carboxamide] | ≤ 500 nM |  | ≥ 500 nM
5 | CC(C)(O)C[C@@H](NC(=O)N1Cc2c(NC(=O)C3([Si](C)(C)C)CCC3)n[nH]c2C1(C)C)c1ccc(F)cc1 [IV-939, (R)—N-[1-(4-Fluorophenyl)-3-hydroxy-3-methylbutyl]-6,6-dimethyl-3-[1-(trimethylsilyl)cyclobutanecarboxamido]-4,6-dihydropyrrolo[3,4-c]pyrazole-5(1H)-carboxamide] | ≤ 500 nM | ≤ 50 nM | 
6 | CC(C)(CO)C(NC(=O)N1Cc2c(NC(=O)C3([Si](C)(C)C)CCC3)n[nH]c2C1(C)C)c1ccc(F)cc1 (stereo not shown) [IV-946, N-[1-(4-Fluorophenyl)-3-hydroxy-2,2-dimethylpropyl]-6,6-dimethyl-3-[1-(trimethylsilyl)cyclobutanecarboxamido]-4,6-dihydropyrrolo[3,4-c]pyrazole-5(1H)-carboxamide] | ≤ 500 nM |  | ≥ 500 nM
7 | CC[Si](C)(C)C1(C(=O)Nc2n[nH]c3c2CN(C(=O)[C@H](OC)c2ccccc2)C3(C)C)CCC1 [IV-1178, (R)-1-(Ethyldimethylsilyl)-N-[5-(2-methoxy-2-phenylacetyl)-6,6-dimethyl-1,4,5,6-tetrahydropyrrolo[3,4-c]pyrazol-3-yl] cyclobutanecarboxamide] | ≤ 500 nM | ≤ 50 nM | 
8 | CC1(C)c2[nH]nc(NC(=O)C3([Si](C)(C)C)CCC3)c2CN1C(=O)[C@H](OC(F)F)c1ccccc1 [IV-1180, (R)—N-{5-[2-(Difluoromethoxy)-2-phenylacetyl]-6,6-dimethyl-1,4,5,6-tetrahydropyrrolo[3,4-c]pyrazol-3-yl}-1-(trimethylsilyl)cyclobutanecarboxamide] | ≤ 500 nM | ≤ 50 nM | 
9 | CC1(C)c2[nH]nc(NC(=O)C3([Si](C)(C)C)CCC3)c2CN1C(=O)[C@H](OC(F)(F)F)c1ccccc1 [IV-1184, (R)—N-{6,6-Dimethyl-5-[2-phenyl-2-(trifluoromethoxy)acetyl]-1,4,5,6-tetrahydropyrrolo[3,4-c]pyrazol-3-yl}-1-(trimethylsilyl)cyclobutanecarboxamide] | ≤ 500 nM |  | ≥ 500 nM

Other lines, results leading:

Row | IC50 [1] | Ki (CDK7) | Ki (PAK4) | Structure (SMILES)
10 | ≤ 500 nM |  |  | CC(C)(CO)C(NC(=O)N1Cc2c(NC(=O)C3([Si](C)(C)C)CCC3)n[nH]c2C1(C)C)c1ccccc1 (racemic) [IV-354, N-(3-Hydroxy-2,2-dimethyl-1-phenylpropyl)-6,6-dimethyl-3-[1-(trimethylsilyl)cyclobutanecarboxamido]-4,6-dihydropyrrolo[3,4-c]pyrazole-5(1H)-carboxamide]
11 | ≤ 500 nM | ≤ 50 nM | ≥ 500 nM | CC(C)(CO)C(NC(=O)N1Cc2c(NC(=O)C3([Si](C)(C)C)CCC3)n[nH]c2C1(C)C)c1ccccc1 (single isomer, unassigned; (-)) [IV-673, (−)-N-(3-Hydroxy-2,2-dimethyl-1-phenylpropyl)-6,6-dimethyl-3-[1-(trimethylsilyl)cyclobutanecarboxamido]-4,6-dihydropyrrolo[3,4-c]pyrazole-5(1H)-carboxamide]
12 | ≤ 500 nM | ≤ 50 nM | ≥ 500 nM | CC1(C)c2[nH]nc(NC(=O)C3([Si](C)(C)C)CC3)c2CN1C(=O)N[C@H](CO)c1ccccc1 [III-114, (S)—N-(2-Hydroxy-1-phenylethyl)-6,6-dimethyl-3-[1-(trimethylsilyl)cyclopropanecarboxamido]-4,6-dihydropyrrolo[3,4-c]pyrazole-5(1H)-carboxamide]
13 | ≤ 500 nM | ≤ 50 nM | ≥ 500 nM | CC1(C)c2[nH]nc(NC(=O)C3([Si](C)(C)C)CCC3)c2CN1C(=O)O[C@H](CO)c1ccccc1 [IV-2, (S)-2-Hydroxy-1-phenylethyl 6,6-dimethyl-3-[1-(trimethylsilyl)cyclobutanecarboxamido]-4,6-dihydropyrrolo[3,4-c]pyrazole-5(1H)-carboxylate]
14 | ≤ 500 nM | ≤ 50 nM | ≥ 500 nM | CC1(C)c2[nH]nc(NC(=O)C3([Si](C)(C)C)CCC3)c2CN1C(=O)N[C@H](CO)c1ccccc1 [IV-114, (S)—N-(2-Hydroxy-1-phenylethyl)-6,6-dimethyl-3-[1-(trimethylsilyl)cyclobutanecarboxamido]-4,6-dihydropyrrolo[3,4-c]pyrazole-5(1H)-carboxamide]
15 | ≤ 500 nM | ≤ 50 nM | ≥ 500 nM | CC[Si](C)(C)C1(C(=O)Nc2n[nH]c3c2CN(C(=O)N[C@H](CO)c2ccccc2)C3(C)C)CCC1 [IV-117, (S)-3-[1-(Ethyldimethylsilyl)cyclobutanecarboxamido]-N-(2-hydroxy-1-phenylethyl)-6,6-dimethyl-4,6-dihydropyrrolo[3,4-c]pyrazole-5(1H)-carboxamide]
16 | ≤ 500 nM | ≤ 50 nM |  | CCOC[C@@H](NC(=O)N1Cc2c(NC(=O)C3([Si](C)(C)C)CCC3)n[nH]c2C1(C)C)c1ccccc1 [IV-139, (S)—N-(2-Ethoxy-1-phenylethyl)-6,6-dimethyl-3-[1-(trimethylsilyl)cyclobutanecarboxamido]-4,6-dihydropyrrolo[3,4-c]pyrazole-5(1H)-carboxamide]
17 | ≤ 500 nM | ≤ 50 nM |  | CO[C@@H](C(=O)N1Cc2c(NC(=O)C3([Si](C)(C)C)CCC3)n[nH]c2C1(C)C)c1ccccc1 [IV-1175, (R)—N-[5-(2-Methoxy-2-phenylacetyl)-6,6-dimethyl-1,4,5,6-tetrahydropyrrolo[3,4-c]pyrazol-3-yl]-1-(trimethylsilyl)cyclobutanecarboxamide]
18 | ≤ 500 nM | ≤ 50 nM |  | CCO[C@@H](C(=O)N1Cc2c(NC(=O)C3([Si](C)(C)C)CCC3)n[nH]c2C1(C)C)c1ccccc1 [IV-1188, (R)—N-[5-(2-Ethoxy-2-phenylacetyl)-6,6-dimethyl-1,4,5,6-tetrahydropyrrolo[3,4-c]pyrazol-3-yl]-1-(trimethylsilyl)cyclobutanecarboxamide]
19 | ≤ 500 nM | ≤ 50 nM |  | CCCO[C@@H](C(=O)N1Cc2c(NC(=O)C3([Si](C)(C)C)CCC3)n[nH]c2C1(C)C)c1ccccc1 [IV-1196, (R)—N-[6,6-Dimethyl-5-(2-phenyl-2-propoxyacetyl)-1,4,5,6-tetrahydropyrrolo[3,4-c]pyrazol-3-yl]-1-(trimethylsilyl)cyclobutanecarboxamide]
